# Read-outs that look alike come from different tables or passages of the source.
# Assays:
# AURKA = biological target: T1, AURKA (Homo sapiens, UniProt O14965); assay type: cell-based
# T1 construct: endogenous in cells; host or cells: Jurkat cells
# T1 sequence (O14965 1-403): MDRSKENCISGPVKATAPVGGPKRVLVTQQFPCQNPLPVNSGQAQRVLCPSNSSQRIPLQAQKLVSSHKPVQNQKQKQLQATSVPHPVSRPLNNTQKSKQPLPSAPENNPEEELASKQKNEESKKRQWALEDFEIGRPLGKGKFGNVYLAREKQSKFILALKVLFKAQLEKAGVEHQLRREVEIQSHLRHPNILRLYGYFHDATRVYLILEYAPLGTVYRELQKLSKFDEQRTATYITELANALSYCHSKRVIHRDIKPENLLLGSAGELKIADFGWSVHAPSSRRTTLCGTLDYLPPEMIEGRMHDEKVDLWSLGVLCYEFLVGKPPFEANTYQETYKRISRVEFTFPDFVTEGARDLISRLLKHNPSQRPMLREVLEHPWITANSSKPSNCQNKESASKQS
# Outline: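 AURKA degradation read by western blot: band signal, fluorescent or chemiluminescent, curve-fitted to derive DC50. Cells were Jurkat, plated at 1×10^6 cells/500 µL with compound, then lysed and blotted onto nitrocellulose, primary antibody overnight at 4°C.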
# H82 cells = experiment: cells; assay type: cell-based; settings: Homo sapiens
# Outline: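 After 6 days' compound treatment at 37 °C (final DMSO 0.1%, RPMI1640/10% FBS), viable H82 cells were quantified by ATP-dependent CellTiter-Glo luminescence. Remaining activity was calculated against DMSO and medium wells, and a sigmoidal fit gave IC50.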
# [1] = 100 nM compound, Jurkat cells, 24 h, Table 2
# [2] = 1 µM compound, Jurkat cells, 24 h, Table 2
# [3] = NCI-H82, H82 cells, 4000 cells/well, CellTiter-Glo, read-out: IC50 in H82 Cells
# [4] = NCI-H82, read-out: IC50 in H82 Cells
Structure (SMILES),Percentage of AURKA Degradation Induced by 100 nM Compound in Jurkat Cells (AURKA; [1]),Percentage of AURKA Degradation Induced by 1 µM Compound in Jurkat Cells (AURKA; [2]),IC50 (H82 cells; [3]) [µM],IC50 (H82 cells; [4]) [µM],Percentage of AURKA Degradation Induced by 100 nM Compound in Jurkat Cells (AURKA),Percentage of AURKA Degradation Induced by 1 µM Compound in Jurkat Cells (AURKA)
NC(=O)c1cc(N2CCN(C(=O)C3CCN(c4ccc(Nc5ncc6c(n5)-c5ccc(Cl)cc5C(c5c(F)cccc5F)=NC6)cc4)CC3)CC2)ncc1N1CCC(=O)NC1=O [Compound A334],+ (Degradation ≤ 30%),+ (Degradation ≤ 30%),< 1,–,–,–
O=C1CCN(c2ccc(N3CCC4(CC3)CC(N3CCN(c5ccc(Nc6ncc7c(n6)-c6ccc(Cl)cc6C(c6c(F)cccc6F)=NC7)cc5)C(=O)C3)CO4)nc2)C(=O)N1 (stereo not drawn) [Compound A336],+++ (Degradation > 70%),+++ (Degradation > 70%),< 1,–,–,–
O=C1CCN(c2ccc(N3CCC4(CC3)CC(N3CCN(c5ccc(Nc6ncc7c(n6)-c6ccc(Cl)cc6C(c6nccs6)=NC7)cc5)C(=O)C3)CO4)nc2)C(=O)N1 (stereo not drawn) [Compound A337],+++ (Degradation > 70%),+++ (Degradation > 70%),< 1,–,–,–
O=C1CCN(c2ccc(N3CCC4(CC3)CC(N3CCN(C56CC(Nc7ncc8c(n7)-c7ccc(Cl)cc7C(c7nccs7)=NC8)(C5)C6)C(=O)C3)CO4)nc2)C(=O)N1 (stereo not drawn) [Compound A339],+++ (Degradation > 70%),+++ (Degradation > 70%),< 1,–,–,–
O=C1CCN(c2ccc(N3CCC4(CC3)C[C@@H](N3CCN(c5ccc(Nc6ncc7c(n6)-c6ccc(Cl)cc6C(c6c(F)cccc6F)=NC7)cc5)CC3)CO4)nc2)C(=O)N1 [Compound A341],+++ (Degradation > 70%),+++ (Degradation > 70%),–,< 1,–,–
O=C1CCN(c2ccc(N3CCC4(CC3)C[C@H](N3CCN(c5ccc(Nc6ncc7c(n6)-c6ccc(Cl)cc6C(c6c(F)cccc6F)=NC7)cc5)CC3)CO4)nc2)C(=O)N1 [Compound A342],+++ (Degradation > 70%),+++ (Degradation > 70%),–,< 1,–,–
O=C1CCN(c2ccc(N3CCOC(C(=O)N4CCN(c5ccc(Nc6ncc7c(n6)-c6ccc(Cl)cc6C(c6nccs6)=NC7)cc5)CC4)C3)nc2)C(=O)N1 (stereo not drawn) [Compound A343],+++ (Degradation > 70%),+++ (Degradation > 70%),< 1,–,–,–
O=C1CCN(c2ccc(N3CCC4(CC3)CC(N3CCN(c5ccc(Nc6ncc7c(n6)-c6ccc(Cl)cc6C(c6nccs6)=NC7)cc5)CC3)CO4)nc2)C(=O)N1 (stereo not drawn) [Compound A345],+++ (Degradation > 70%),+++ (Degradation > 70%),< 1,–,–,–
O=C1CCN(c2ccc(N3CCC4(CC3)CN(C3CCN(c5ccc(Nc6ncc7c(n6)-c6ccc(Cl)cc6C(c6c(F)cccc6F)=NC7)cc5)CC3)CCO4)nc2)C(=O)N1 [Compound A346],–,–,–,< 1,+++ (key: +: Degradation ≤ 30%; ++: 30% < Degradation ≤ 70%; +++: Degradation > 70%),+++ (key: +: Degradation ≤ 30%; ++: 30% < Degradation ≤ 70%; +++: Degradation > 70%)
O=C1CCN(c2ccc(N3CCC4(CC3)CN(C3CCN(c5cccc(Nc6ncc7c(n6)-c6ccc(Cl)cc6C(c6c(F)cccc6F)=NC7)c5)CC3)CCO4)nc2)C(=O)N1 [Compound A347],–,–,–,< 1,+++ (key: +: Degradation ≤ 30%; ++: 30% < Degradation ≤ 70%; +++: Degradation > 70%),+++ (key: +: Degradation ≤ 30%; ++: 30% < Degradation ≤ 70%; +++: Degradation > 70%)
O=C1CCN(c2ccc(N3CCC(N4CCC(c5ccc(Nc6ncc7c(n6)-c6ccc(Cl)cc6C(c6c(F)cccc6F)=NC7)cc5)C(F)(F)C4)CC3)nc2)C(=O)N1 (stereo not drawn) [Compound A350],+++ (Degradation > 70%),+++ (Degradation > 70%),–,< 1,–,–
O=C1CCN(c2ccc(N3CCC4(CC3)CC(N3CCC(c5ccc(Nc6ncc7c(n6)-c6ccc(Cl)cc6C(c6c(F)cccc6F)=NC7)cc5)C(F)(F)C3)CO4)nc2)C(=O)N1 (stereo not drawn) [Compound A351],+++ (Degradation > 70%),+++ (Degradation > 70%),< 1,–,–,–
